According to PMC7747594, “Protease-activated receptor-2 ligands reveal orthosteric and allosteric mechanisms of receptor inhibition” (Communications Biology, 2020):
“And” between values parts separate entries of the source, which are not always exact repeats. Identical values can stand only once.

How the values were obtained:
[1] = test system: mast cells; assay: Immunohistochemistry, tryptase-positive (AA1+ve) intact mast cells in rat paw; assay type: in vivo; conditions: for AA +ve cells (% max): 2f-induced rat paw oedema, individual animals (Figure 5c); for decrease of tryptase-positive mast cells by 2f-LIGRLO-NH2: pre-treatment, 30 min
Description: (§1) Tissues were then embedded with Optimal Cutting Temperature compound (OCT, Sakura Finetek, USA) and stored at −80 °C before making cryo-sections for histological analysis. Frozen sections (5 µm) were made using a cryostat-microtome (Leica Biosystems, Germany). […] Slides were then dehydrated and mounted in DPX mountant (Sigma-Aldrich, USA). For immunohistochemistry, slides were briefly rinsed with PBS to remove OCT. Except for tryptase staining, antigen retrieval was performed by incubating slides in citrate buffer (0.01 M, pH 6) at 95 °C for 20 min. They were then cooled down briefly and incubated with blocking medium (PBS, 0.1% Triton X-100, 10% horse serum) for 1 h at room temperature in a humidity chamber. Samples were incubated with primary antibody medium (PBS, 0.1% Triton X-100, 4% horse serum; 1:100 primary antibody including – histamine, neutrophil elastase or ED1 antibodies) overnight at 4 °C. The next day, samples were washed with PBS and incubated with the secondary antibody medium (PBS, 0.1% Triton X-100, 4% horse serum, detection antibody 1:200) for 2 h at room temperature. For tryptase staining, slides were incubated with primary antibody medium (as above with tryptase antibody at 1:100 dilution) for 4 h, then the secondary antibody medium for 2 h. Finally, slides were dried, counterstained with DAPI (Invitrogen, Australia), and sealed with clear nail polish. Primary antibodies for tryptase (AA1, ab2378, Abcam, Australia), histamine (H7403, Sigma-Aldrich, USA), neutrophil elastase (ab21595, Abcam, Australia) and ED1 (ab31630, Abcam, Australia) were purchased from commercial sources. Secondary detection antibody was purchased from Abcam, Australia.

[2] = test system: neutrophils; assay: Immunohistochemistry, neutrophil elastase-positive (NE+ve) neutrophils in rat paw; assay type: in vivo; conditions: for NE +ve cells (% max): 2f-induced rat paw oedema, individual animals (Figure 5h); for decrease of NE+ve cells by 2f-LIGRLO-NH2: pre-treatment, 30 min
Description: as §1

[3] = target: T1, hPAR2 (Homo sapiens, UniProt P55085); assay: Schild and allosteric model analysis of Ca^2+ mobilisation in CHO-hPAR2 cells (2f-LIGRL-NH2 or trypsin); assay type: cell-based; conditions: for linear Schild regression slope: Figure R1; for logα / logβ: operational model of allosterism
T1 sequence (P55085 26-397): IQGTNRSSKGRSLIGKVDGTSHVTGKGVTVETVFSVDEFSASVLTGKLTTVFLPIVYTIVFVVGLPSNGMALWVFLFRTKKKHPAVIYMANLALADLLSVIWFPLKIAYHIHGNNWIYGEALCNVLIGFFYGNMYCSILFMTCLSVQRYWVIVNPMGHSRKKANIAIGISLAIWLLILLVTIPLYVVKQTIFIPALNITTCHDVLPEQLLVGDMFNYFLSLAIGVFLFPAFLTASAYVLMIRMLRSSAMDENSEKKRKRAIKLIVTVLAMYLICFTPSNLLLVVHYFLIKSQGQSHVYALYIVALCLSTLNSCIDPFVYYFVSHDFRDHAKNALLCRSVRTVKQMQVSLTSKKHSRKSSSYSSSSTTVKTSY
Description: Cells were loaded with Fluo-8 NW calcium dye (AAT Bioquest) for 30 min at 37 °C before compounds in Hank’s balanced salt solution (HBSS, ThermoFisher Scientific) with 20 mM HEPES (ThermoFisher Scientific), 0.1% bovine serum albumin (BSA, Sigma) and 0.5% DMSO were added and simultaneously evaluated for changes in intracellular [Ca^2+] using FLIPR TETRA (Molecular Devices) to detect agonism. For each concentration, the difference between the maximum peak Ca^2+ response and baseline response is reported. […] Antagonism experiments were also carried out on 1321N1-PAR2[WT], 1321N1-PAR2[F154A], and 1321N1-PAR2[G157C] as described. Experiments with trypsin in 1321N1-hPAR2 cells were performed in the presence of 1 µM Vorapaxar (Chemtronica) to remove any interference of PAR1 activity. […] Antagonism experiments for CHO-hPAR2 and HT-29 cells were performed in 96-well plates at 30,000 cells/well. Cells were loaded with Fluo-3 AM calcium dye (Sigma-Aldrich) for 60 min at 37 °C in HBSS with 1% FBS, 0.2% pluronic acid, 20 mM HEPES and 2.5 mM probenecid prior to the addition of antagonist. The antagonist was pre-incubated for 60 min at 37 °C followed by the addition of bovine trypsin (30 nM) at EC80. Intracellular [Ca^2+] flux was measured using FLIPR TETRA (Molecular Devices) and the difference between the maximum peak Ca^2+ response and baseline response is reported.
Binding data were analysed using the One site – Fit Ki model in GraphPad Prism 8 (GraphPad Software) to determine binding affinity. Pharmacology in vitro potency data was analysed with a 4-parameter logistic fit using the equation y = Bottom + (Top − Bottom)/[…] where y is the response, x is the 10-logarithm of the drug concentration, Bottom is no response and Top is full response in GraphPad Prism 8 or Genedata Screener (Genedata). pEC50 and pIC50 data are presented as mean ± standard error of the mean (s.e.m.) derived from the number of independent experiments stated. Schild slope analysis was calculated using Graphpad Prism 8 Gaddum/Schild EC50 global fitting (shared model parameters between all data sets) competitive model. […] Schild slope quantifies the shifts in agonist response in the presence of antagonist, a Schild slope of 1 indicates the antagonist is competitive and extra-sum-of-squares F-test (p < 0.05) was used to compare the calculated Schild slope against a hypothetical Schild slope of 1. […] The relative activity was calculated using (EmaxEC50’)/(Emax’EC50) with the Hill slope help constant at 1. EC50’ and Emax’ denote the EC50 and Emax in the absence of allosteric modulator, while EC50 and Emax denote those measured in the presence of allosteric modulator. When the Hill slope = 1, the relative activity plot approaches an asymptote corresponding to the estimate of the γ value.

[4] = against 2f-LIGRL-NH2, Gaddum/Schild EC50 global fitting, CHO-hPAR2 cells
[5] = against trypsin, Gaddum/Schild EC50 global fitting, CHO-hPAR2 cells
[6] = 2f-LIGRL-NH2, Ca^2+ mobilisation

C[C@@H](C1CCCCC1)n1c(-c2cc3c(cc2Br)OCO3)nc2cc(C(=O)Nc3ccc(C#N)cc3)ccc21 [AZ3451]
AA +ve cells (% max) [1]: 91.7692 % max and 45.8846 % max and 58.1835 % max and 66.6982 % max
decrease of tryptase-positive mast cells by 2f-LIGRLO-NH2 [1]: partly blocked
NE +ve cells (% max) [2]: 135.782 % max and 55.9949 % max and 85.0488 % max and 57.3155 % max
decrease of NE+ve cells by 2f-LIGRLO-NH2 [2]: partially inhibited
γ value estimated from relative activity ([3]; 2f-LIGRL-NH2): 0.002
linear Schild regression slope ([3]; 2f-LIGRL-NH2, CHO-hPAR2 cells): 0.4
Schild slope [3, 4]: 0.4
Schild slope [3, 5]: 0.3
logα [3, 6]: −1.98 ± 0.11
logβ [3, 6]: −0.28 ± 0.07
logα ([3]; trypsin, Ca^2+ mobilisation): −1.19 ± 0.07
logβ ([3]; trypsin, Ca^2+ mobilisation): −0.66 ± 0.08
γ value estimated from relative activity ([3]; trypsin): 0.09
linear Schild regression slope ([3]; trypsin, CHO-hPAR2 cells): 0.2

CCCc1cc(F)ccc1C(O)c1ncc[nH]1 (stereo not shown) [AZ8838]
AA +ve cells (% max) [1]: 70.0073 % max and 71.1692 % max and 108.061 % max and 60.4212 % max and 59.2593 % max
decrease of tryptase-positive mast cells by 2f-LIGRLO-NH2 [1]: partly blocked
NE +ve cells (% max) [2]: 83.5679 % max and 62.4433 % max and 139.912 % max and 107.932 % max and 66.1651 % max
decrease of NE+ve cells by 2f-LIGRLO-NH2 [2]: partially inhibited
linear Schild regression slope ([3]; 2f-LIGRL-NH2, CHO-hPAR2 cells): 1.0
Schild slope [3, 4]: 1.1
Schild slope [3, 5]: 0.9
linear Schild regression slope ([3]; trypsin, CHO-hPAR2 cells): 0.8
